PubChem BioAssay (NCI)
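Protocol summary: plate cells (96-well), add compound at 5 concentrations, incubate 48 h, interpolate endpoints linearly. Abbreviation: GI50, concentration required for 50% inhibition of growth. The concentration for full growth arrest is given as TGI.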

What was measured:
Experiment in all cases: NCI tumour cell line growth inhibition, 48 h
KM12 colon = system: KM12 colon
MDA-MB-435 = system: MDA-MB-435
SN12C renal = system: SN12C renal
OVCAR-8 ovarian = system: OVCAR-8 ovarian
PC-3 prostate = system: PC-3 prostate
OVCAR-4 ovarian = system: OVCAR-4 ovarian
OVCAR-5 ovarian = system: OVCAR-5 ovarian
IGROV1 ovarian = system: IGROV1 ovarian
SK-MEL-2 melanoma = system: SK-MEL-2 melanoma
DU-145 prostate = system: DU-145 prostate

Row | SMILES | GI50 (KM12 colon) [µM] | TGI (KM12 colon) [µM] | GI50 (MDA-MB-435) [µM] | TGI (MDA-MB-435) [µM] | GI50 (SN12C renal) [µM] | TGI (SN12C renal) [µM] | GI50 (OVCAR-8 ovarian) [µM] | TGI (OVCAR-8 ovarian) [µM] | GI50 (PC-3 prostate) [µM] | TGI (PC-3 prostate) [µM] | GI50 (OVCAR-4 ovarian) [µM] | TGI (OVCAR-4 ovarian) [µM] | GI50 (OVCAR-5 ovarian) [µM] | TGI (OVCAR-5 ovarian) [µM] | GI50 (IGROV1 ovarian) [µM] | TGI (IGROV1 ovarian) [µM] | GI50 (SK-MEL-2 melanoma) [µM] | TGI (SK-MEL-2 melanoma) [µM] | GI50 (DU-145 prostate) [µM] | TGI (DU-145 prostate) [µM]
1 | CCNC(=O)[C@@H]1CCCN2C(=O)CC[C@H](NC(=O)[C@H](Cc3ccc(OP(=O)(O)O)cc3)NC(C)=O)C(=O)N12 | > 25 | > 25 | > 25 | > 25 | > 25 | > 25 | > 25 | > 25 | > 25 | > 25 | > 25 | > 25 | > 25 | > 25 | > 25 | > 25 | > 25 | > 25 | > 25 | > 25
2 | Nc1ccc2c(c1)C(=O)C(=O)c1c-2nc2ccccn12 | 2.13 | 6.8 | 0.186 | 0.352 | 1.08 | 2.48 | 1.29 | 3.23 | 1.78 | 10.5 | 1.23 | 2.49 | 1.92 | 3.57 | 1.52 | 3.55 | 1.68 | 3.7 | 0.556 | 1.79
3 | F | 2610 | > 6870 | 2080 | 5500 | 3270 | > 6870 | 3250 | > 6870 | 3920 | > 6870 | > 6870 | > 6870 | 2560 | > 6870 | 2800 | > 6870 | 1440 | 2890 | 2800 | > 6870
4 | C=C1C(=O)O[C@H]2[C@H]1CC/C(CNC(=O)Cc1c[nH]c3ccccc13)=C\CC[C@@]1(C)O[C@@H]21 | 8.44 | 21.6 | 0.862 | 13.4 | 1.91 | 18.3 | 1.12 | 12.4 | 6.36 | 21.1 | 1.74 | 15.7 | 10.2 | 24.2 | 0.833 | 9.06 | 6.46 | 22.2 | 0.834 | 12.3
5 | C/C(=N\NC(=O)c1sc(=S)n(C)c1N)c1cc2ccccc2o1 | 9.12 | 25.8 | 8.65 | 32 | 17.6 | 55.6 | 15.3 | 33.8 | 9.73 | 32.7 | 17.9 | 64.2 | 16.4 | 48.2 | 21.4 | > 100 | 14 | 37 | 11.4 | 27.6
6 | COc1ccc(-c2cc(-c3cc(Cl)ccc3Cl)nc3n[nH]c(N)c23)cc1 | 8.26 | 83.6 | 2.65 | 6.94 | 32.7 | > 100 | 32 | > 100 | 35.9 | > 100 | 15.6 | > 100 | 58.2 | > 100 | 28.3 | > 100 | 36.1 | > 100 | 36 | > 100
7 | Cn1cc(-c2ccc3c(Nc4cccc(NC(=O)Nc5cccc(F)c5)c4)ncnc3c2)cn1 | 2.52 | 10.8 | 1.49 | 2.89 | 1.6 | 4.29 | 2.25 | > 100 | 2.78 | 15.5 | 1.85 | 4.41 | 10.3 | 22 | 1.3 | 11.2 | 4.43 | 17.8 | 1.86 | 6.6
8 | O=C(O)CCNc1ccccc1C(=O)O | – | > 100 | – | > 100 | – | > 100 | – | > 100 | – | > 100 | – | > 100 | – | > 100 | – | > 100 | – | > 100 | – | > 100
9 | CC[C@]1(O)CC(OC2CC(N(C)C)C(O)C(C)O2)c2c(cc3c(c2O)C(=O)c2c(O)cccc2C3=O)[C@@H]1C(=O)OC (some centres undefined) | – | 3.2 | – | 1.44 | – | 6.85 | – | 5.11 | – | 1.8 | – | 1.49 | – | 13.9 | – | 3.21 | – | 1.82 | – | 12.9
10 | CC1(C)N=C(N)N=C(N)N1c1cccc(CCCCc2cccc(S(=O)(=O)F)c2)c1 | 0.474 | 14.2 | 0.329 | 29 | 0.571 | > 100 | 4.84 | > 100 | 0.157 | > 100 | 8.06 | > 100 | – | > 100 | 0.157 | > 58.3 | 2.73 | > 58.5 | 1.17 | > 100
11 | Cc1cccc(NC(=O)CCc2ccc(N3C(N)=NC(N)=NC3(C)C)cc2)c1 | 1.24 | > 100 | 0.56 | > 100 | 0.575 | > 100 | 13.6 | > 100 | 0.089 | > 66.4 | 18.4 | > 100 | > 37.2 | > 100 | 0.603 | > 100 | > 33.6 | > 100 | 0.941 | > 100
12 | COc1cccc(C2c3cc4c(cc3OC(C)(N3CCCC3)C2C)OCO4)c1OC (centres undefined) | – | 23 | – | 49.3 | – | 41.6 | – | 98.1 | – | 41.2 | – | 46.1 | – | 43 | – | > 100 | – | 27 | – | 49.9
13 | COc1ccc(C2CC(c3cc(OC)c(OC)c(OC)c3)=NO2)cc1OCCCCOc1cc2c(cc1OC)C(=O)N1CCC[C@H]1C=N2 (some centres undefined) | 1.74 | 3.32 | 3.54 | > 100 | 1.58 | 3.31 | 2.55 | 7.74 | 0.585 | 3.04 | 2.07 | 5.04 | 3.13 | 8.34 | 1.57 | 3.06 | 2.03 | 4.8 | 2.48 | 7.43
14 | Cc1c2cc[n+](C)cc2c(C)c2c1sc1ccccc12 | – | 2.97 | – | 6.18 | – | 0.747 | – | 4.8 | – | 13.1 | – | 11.4 | – | 15.6 | – | 28.4 | – | 7.71 | – | 5.07
